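Exposure lasted 48 hours, with cells grown in 96-well plates and compounds tested at five concentrations. Abbreviation: GI50, concentration required for 50% inhibition of growth. Definition used: TGI = concentration required for complete inhibition of growth.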
How the values were obtained:
Assay in all cases: DTP human tumour cell line panel, 48 h
NCI-H460 lung = test system: NCI-H460 lung
UACC-62 melanoma = test system: UACC-62 melanoma
SK-OV-3 ovarian = test system: SK-OV-3 ovarian
OVCAR-5 ovarian = test system: OVCAR-5 ovarian
SK-MEL-2 melanoma = test system: SK-MEL-2 melanoma
HS 578T breast = test system: HS 578T breast
M14 melanoma = test system: M14 melanoma
PC-3 prostate = test system: PC-3 prostate
NCI-H226 lung = test system: NCI-H226 lung
TK-10 renal = test system: TK-10 renal
OVCAR-8 ovarian = test system: OVCAR-8 ovarian
SK-MEL-5 melanoma = test system: SK-MEL-5 melanoma
UO-31 renal = test system: UO-31 renal
A549 NSCLC = test system: A549 NSCLC
MCF7 breast = test system: MCF7 breast
SF-268 CNS = test system: SF-268 CNS
SN12C renal = test system: SN12C renal
HCT-116 colon = test system: HCT-116 colon
BT-549 breast = test system: BT-549 breast
LOX IMVI melanoma = test system: LOX IMVI melanoma
786-0 renal = test system: 786-0 renal
RXF 393 renal = test system: RXF 393 renal
A498 renal = test system: A498 renal
HOP-92 NSCLC = test system: HOP-92 NSCLC
U251 CNS = test system: U251 CNS
MDA-MB-435 = test system: MDA-MB-435
NCI/ADR-RES ovarian = test system: NCI/ADR-RES ovarian
UACC-257 melanoma = test system: UACC-257 melanoma
COLO 205 colon = test system: COLO 205 colon
SF-295 CNS = test system: SF-295 CNS
KM12 colon = test system: KM12 colon
HCT-15 colon = test system: HCT-15 colon
HCC-2998 colon = test system: HCC-2998 colon
MALME-3M melanoma = test system: MALME-3M melanoma
SF-539 CNS = test system: SF-539 CNS
CCRF-CEM leukemia = test system: CCRF-CEM leukemia
IGROV1 ovarian = test system: IGROV1 ovarian
RPMI-8226 leukemia = test system: RPMI-8226 leukemia
SW-620 colon = test system: SW-620 colon
OVCAR-3 ovarian = test system: OVCAR-3 ovarian
HOP-62 NSCLC = test system: HOP-62 NSCLC
HL-60(TB) leukemia = test system: HL-60(TB) leukemia
SNB-75 CNS = test system: SNB-75 CNS
DU-145 prostate = test system: DU-145 prostate
K-562 leukemia = test system: K-562 leukemia
MDA-MB-468 breast = test system: MDA-MB-468 breast
NCI-H23 lung = test system: NCI-H23 lung
ACHN renal = test system: ACHN renal
NCI-H522 lung = test system: NCI-H522 lung
T-47D breast = test system: T-47D breast
SNB-19 CNS = test system: SNB-19 CNS
MOLT-4 leukemia = test system: MOLT-4 leukemia
MDA-MB-231 breast = test system: MDA-MB-231 breast
CAKI-1 renal = test system: CAKI-1 renal
OVCAR-4 ovarian = test system: OVCAR-4 ovarian
EKVX NSCLC = test system: EKVX NSCLC
SK-MEL-28 melanoma = test system: SK-MEL-28 melanoma

How did the GI50 (NCI-H460 lung) turn out when Cc1occc1C(=O)NN1C(=O)/C(=C/C=C/c2ccc([N+](=O)[O-])o2)SC1=S was run?
The GI50 was 1.79 µM.

What about the TGI (NCI-H460 lung) of the same compound?
Its TGI is 3.66 µM.

And the GI50 (UACC-62 melanoma)?
Its GI50 is 1.36 µM.

And the TGI (UACC-62 melanoma)?
Its TGI is 2.77 µM.

And the GI50 (SK-OV-3 ovarian)?
The GI50 was 5.82 µM.

And the TGI (SK-OV-3 ovarian)?
The TGI was 18.7 µM.

What about the GI50 (OVCAR-5 ovarian) of the same compound?
Its GI50 is 1.86 µM.

What about the TGI (OVCAR-5 ovarian) of the same compound?
Its TGI is 3.68 µM.

And the GI50 (SK-MEL-2 melanoma)?
Its GI50 is 1.73 µM.

What about the TGI (SK-MEL-2 melanoma) of the same compound?
The TGI was 3.56 µM.

And the GI50 (HS 578T breast)?
The GI50 was 2.44 µM.

And the TGI (HS 578T breast)?
The TGI was 7.46 µM.

And the GI50 (M14 melanoma)?
The GI50 was 1.51 µM.

And the TGI (M14 melanoma)?
Its TGI is 2.93 µM.

What about the GI50 (PC-3 prostate) of the same compound?
The GI50 was 2.79 µM.

What about the TGI (PC-3 prostate) of the same compound?
Its TGI is 10.2 µM.

What about the GI50 (NCI-H226 lung) of the same compound?
The GI50 was 2.02 µM.

And the TGI (NCI-H226 lung)?
Its TGI is 5.09 µM.

And the GI50 (TK-10 renal)?
Its GI50 is 3.47 µM.

What about the TGI (TK-10 renal) of the same compound?
Its TGI is 9.99 µM.

And the GI50 (OVCAR-8 ovarian)?
The GI50 was 2.5 µM.

What about the TGI (OVCAR-8 ovarian) of the same compound?
Its TGI is 10.9 µM.

And the GI50 (SK-MEL-5 melanoma)?
Its GI50 is 1.64 µM.

And the TGI (SK-MEL-5 melanoma)?
The TGI was 3.13 µM.

And the GI50 (UO-31 renal)?
The GI50 was 1.51 µM.

And the TGI (UO-31 renal)?
The TGI was 2.96 µM.

What about the GI50 (A549 NSCLC) of the same compound?
Its GI50 is 4.82 µM.

And the TGI (A549 NSCLC)?
Its TGI is 21.1 µM.

What about the GI50 (MCF7 breast) of the same compound?
Its GI50 is 1.5 µM.

What about the TGI (MCF7 breast) of the same compound?
The TGI was 5 µM.

And the GI50 (SF-268 CNS)?
The GI50 was 2.49 µM.

What about the TGI (SF-268 CNS) of the same compound?
The TGI was 6.95 µM.

And the GI50 (SN12C renal)?
Its GI50 is 1.65 µM.

What about the TGI (SN12C renal) of the same compound?
Its TGI is 3.96 µM.

What about the GI50 (HCT-116 colon) of the same compound?
Its GI50 is 1.06 µM.

And the TGI (HCT-116 colon)?
The TGI was 2.54 µM.

What about the GI50 (BT-549 breast) of the same compound?
Its GI50 is 1.77 µM.

And the TGI (BT-549 breast)?
The TGI was 3.29 µM.

What about the GI50 (LOX IMVI melanoma) of the same compound?
The GI50 was 1.26 µM.

What about the TGI (LOX IMVI melanoma) of the same compound?
The TGI was 2.55 µM.

What about the GI50 (786-0 renal) of the same compound?
Its GI50 is 2.01 µM.

What about the TGI (786-0 renal) of the same compound?
The TGI was 4.19 µM.

And the GI50 (RXF 393 renal)?
The GI50 was 1.71 µM.

What about the TGI (RXF 393 renal) of the same compound?
The TGI was 3.2 µM.

What about the GI50 (A498 renal) of the same compound?
The GI50 was 19.4 µM.

What about the TGI (A498 renal) of the same compound?
Its TGI is 33.6 µM.

And the GI50 (HOP-92 NSCLC)?
The GI50 was 2.56 µM.

And the TGI (HOP-92 NSCLC)?
The TGI was 5.59 µM.

And the GI50 (U251 CNS)?
Its GI50 is 1.89 µM.

And the TGI (U251 CNS)?
The TGI was 4.62 µM.

And the GI50 (MDA-MB-435)?
The GI50 was 1.93 µM.

And the TGI (MDA-MB-435)?
The TGI was 4.26 µM.

What about the GI50 (NCI/ADR-RES ovarian) of the same compound?
Its GI50 is 2.55 µM.

And the TGI (NCI/ADR-RES ovarian)?
The TGI was 7.46 µM.

What about the GI50 (UACC-257 melanoma) of the same compound?
The GI50 was 2.05 µM.

What about the TGI (UACC-257 melanoma) of the same compound?
The TGI was 5.1 µM.

And the GI50 (COLO 205 colon)?
The GI50 was 1.62 µM.

And the TGI (COLO 205 colon)?
The TGI was 3.23 µM.

What about the GI50 (SF-295 CNS) of the same compound?
The GI50 was 6.19 µM.

What about the TGI (SF-295 CNS) of the same compound?
The TGI was 18.8 µM.

And the GI50 (KM12 colon)?
The GI50 was 2.22 µM.

What about the TGI (KM12 colon) of the same compound?
Its TGI is 6.21 µM.

And the GI50 (HCT-15 colon)?
Its GI50 is 0.645 µM.

What about the TGI (HCT-15 colon) of the same compound?
Its TGI is 2.24 µM.

And the GI50 (HCC-2998 colon)?
The GI50 was 1.89 µM.

And the TGI (HCC-2998 colon)?
Its TGI is 3.69 µM.

And the GI50 (MALME-3M melanoma)?
Its GI50 is 1.5 µM.

And the TGI (MALME-3M melanoma)?
Its TGI is 3.23 µM.

And the GI50 (SF-539 CNS)?
The GI50 was 1.72 µM.

What about the TGI (SF-539 CNS) of the same compound?
Its TGI is 3.3 µM.

What about the GI50 (CCRF-CEM leukemia) of the same compound?
Its GI50 is 1.41 µM.

And the TGI (CCRF-CEM leukemia)?
Its TGI is 8.47 µM.

And the GI50 (IGROV1 ovarian)?
The GI50 was 1.85 µM.

And the TGI (IGROV1 ovarian)?
Its TGI is 3.56 µM.

What about the GI50 (RPMI-8226 leukemia) of the same compound?
Its GI50 is 1.67 µM.

What about the TGI (RPMI-8226 leukemia) of the same compound?
Its TGI is 7.51 µM.

What about the GI50 (SW-620 colon) of the same compound?
Its GI50 is 1.11 µM.

What about the TGI (SW-620 colon) of the same compound?
Its TGI is 2.65 µM.

What about the GI50 (OVCAR-3 ovarian) of the same compound?
The GI50 was 1.59 µM.

What about the TGI (OVCAR-3 ovarian) of the same compound?
Its TGI is 3.07 µM.

And the GI50 (HOP-62 NSCLC)?
Its GI50 is 3.37 µM.

And the TGI (HOP-62 NSCLC)?
The TGI was 11.7 µM.

What about the GI50 (HL-60(TB) leukemia) of the same compound?
Its GI50 is 2.64 µM.

And the TGI (HL-60(TB) leukemia)?
Its TGI is 11.6 µM.

What about the GI50 (SNB-75 CNS) of the same compound?
The GI50 was 1.66 µM.

And the TGI (SNB-75 CNS)?
The TGI was 7.48 µM.

And the GI50 (DU-145 prostate)?
The GI50 was 3.11 µM.

And the TGI (DU-145 prostate)?
The TGI was 10.1 µM.

And the GI50 (K-562 leukemia)?
The GI50 was 0.586 µM.

What about the TGI (K-562 leukemia) of the same compound?
Its TGI is 7.28 µM.

What about the GI50 (MDA-MB-468 breast) of the same compound?
Its GI50 is 1.62 µM.

And the TGI (MDA-MB-468 breast)?
Its TGI is 3.27 µM.

What about the GI50 (NCI-H23 lung) of the same compound?
The GI50 was 1.78 µM.

What about the TGI (NCI-H23 lung) of the same compound?
Its TGI is 3.6 µM.

And the GI50 (ACHN renal)?
Its GI50 is 1.73 µM.

And the TGI (ACHN renal)?
The TGI was 3.23 µM.

And the GI50 (NCI-H522 lung)?
The GI50 was 1.65 µM.

And the TGI (NCI-H522 lung)?
Its TGI is 3.21 µM.

What about the GI50 (T-47D breast) of the same compound?
Its GI50 is 2.17 µM.

And the TGI (T-47D breast)?
Its TGI is 5.57 µM.

And the GI50 (SNB-19 CNS)?
The GI50 was 5.47 µM.

What about the TGI (SNB-19 CNS) of the same compound?
Its TGI is 18 µM.

What about the GI50 (MOLT-4 leukemia) of the same compound?
The GI50 was 2.13 µM.

What about the TGI (MOLT-4 leukemia) of the same compound?
Its TGI is 8.32 µM.

What about the GI50 (MDA-MB-231 breast) of the same compound?
The GI50 was 1.51 µM.

And the TGI (MDA-MB-231 breast)?
Its TGI is 2.97 µM.

What about the GI50 (CAKI-1 renal) of the same compound?
Its GI50 is 1.82 µM.

And the TGI (CAKI-1 renal)?
Its TGI is 4.01 µM.

What about the GI50 (OVCAR-4 ovarian) of the same compound?
The GI50 was 2.76 µM.

And the TGI (OVCAR-4 ovarian)?
Its TGI is 10.1 µM.

What about the GI50 (EKVX NSCLC) of the same compound?
Its GI50 is 1.83 µM.

And the TGI (EKVX NSCLC)?
The TGI was 4 µM.

What about the GI50 (SK-MEL-28 melanoma) of the same compound?
The GI50 was 1.85 µM.

And the TGI (SK-MEL-28 melanoma)?
Its TGI is 3.63 µM.

From PubChem BioAssay (NCI)
